Assay results from ChEMBL document CHEMBL5154865, “Antibiotic natural product hunanamycin A: Lead identification towards anti-Salmonella agents” (Eur J Med Chem, 2022).
In brackets after ≈: the same amount, converted by molar mass.

Tests used:
Salmonella enterica = assay: Antibacterial activity against Salmonella enterica ATCC 6539 assessed as microbial cell viability incubated for 24 hr by quantification of ATP multimode plate reader method; format: functional
[1] = Solubility of compound in DMSO at pH 1.2 after 5 mins measured by HPLC analysis; format: physicochemical
[2] = Solubility of compound in DMSO at pH 2.2 after 5 mins measured by HPLC analysis; format: physicochemical
[3] = Solubility of compound in DMSO at pH 4.5 after 5 mins measured by HPLC analysis; format: physicochemical
[4] = Solubility of compound in DMSO at pH 7.4 after 5 mins measured by HPLC analysis; format: physicochemical
[5] = Solubility of compound in DMSO at pH 10.2 after 5 mins measured by HPLC analysis; format: physicochemical
[6] = Stability in human plasma measured after 60 mins LC-MS/MS analysis; format: ADME, cell-free; conditions: read-out: Stability
[7] = Metabolic stability in mouse liver microsomes measured at 1 uM after 30 mins by LC-MS/MS analysis; format: ADME, Microsome; conditions: read-out: Stability
[8] = Metabolic stability in human liver microsomes measured at 1 uM after 30 mins by LC-MS/MS analysis; format: ADME, Microsome; conditions: read-out: Stability
[9] = Plasma protein binding in human measured at 150 uM preincubated for 30 mins followed by addition of dialysis buffer measured after 4 hrs by LC-MS/MS analysis; format: ADME, cell-free; conditions: read-out: PPB (converted)
[10] = Acute toxicity in Swiss albino mouse assessed as mortality at 2 g/Kg, po administered daily for 14 days; format: organism-based; conditions: in vivo, 2000 mg/kg, 336 h, time 14 day
[11] = Acute toxicity in Swiss albino mouse assessed as lethal dose administered orally daily for 14 days; conditions: in vivo, route po, time 14 day

Structure (SMILES): CO[C@@H]1O[C@H](Cn2cc(Cn3c(=O)c(=O)n4c5c(cccc53)C(C)(C)CC4)nn2)[C@@H](O)[C@H]1O
- MIC (Salmonella enterica): 32 µg/mL (≈ 69.9 µM)

Structure (SMILES): CC1(C)CCn2c(=O)n(Cc3cn(CCO)nn3)c3cccc1c32
- MIC (Salmonella enterica): 16 µg/mL (≈ 48.9 µM)

Structure (SMILES): CCOC(=O)Cn1cc(Cn2c(=O)n3c4c(cccc42)C(C)(C)CC3)nn1
- MIC (Salmonella enterica): 8 µg/mL (≈ 21.7 µM)

Structure (SMILES): Cc1cc2c3c(c1C)C(C)(C)CCn3c(=O)c(=O)n2C[C@H](O)[C@H](O)[C@H](O)CO
- MIC (Salmonella enterica): 8 µg/mL (≈ 20.4 µM)
- solubility at 5 min [1]: 50.8 µM (≈ 19.9 µg/mL)
- solubility at 5 min [2]: 50.4 µM (≈ 19.8 µg/mL)
- solubility at 5 min [3]: 50 µM (≈ 19.6 µg/mL)
- solubility at 5 min [4]: 49.4 µM (≈ 19.4 µg/mL)
- solubility at 5 min [5]: 49.3 µM (≈ 19.3 µg/mL)
- remaining at 1 h [6]: 100%
- remaining at 0.5 h, 1 µM [7]: 99.6%
- remaining at 0.5 h, 1 µM [8]: 100%
- fraction unbound at 4 h, 150 µM [9]: 0.412
- Activity [10]: Non-Toxic
- LD50 at 336 h [11]: > 2000 mg/kg

Structure (SMILES): CC1(C)CCn2c(=O)n(Cc3nn[nH]n3)c3cccc1c32
- MIC (Salmonella enterica): > 32 µg/mL

Structure (SMILES): CC1(C)CCn2c(=O)c(=O)n(Cc3cn([C@@H]4OC(CO)C(O)C4O)nn3)c3cccc1c32 (single isomer, unassigned)
- MIC (Salmonella enterica): 32 µg/mL (≈ 72.2 µM)

Structure (SMILES): CO[C@@H]1O[C@H](Cn2c(=O)n3c4c(cccc42)C(C)(C)CC3)[C@@H](O)[C@H]1O
- MIC (Salmonella enterica): 2 µg/mL (≈ 5.74 µM)
- solubility at 5 min [1]: 41.2 µM (≈ 14.4 µg/mL)
- solubility at 5 min [2]: 48.4 µM (≈ 16.8 µg/mL)
- solubility at 5 min [3]: 48.8 µM (≈ 17 µg/mL)
- solubility at 5 min [4]: 48.5 µM (≈ 16.9 µg/mL)
- solubility at 5 min [5]: 48.6 µM (≈ 16.9 µg/mL)
- remaining at 1 h [6]: 98%
- remaining at 0.5 h, 1 µM [7]: 74.3%
- remaining at 0.5 h, 1 µM [8]: 90%
- fraction unbound at 4 h, 150 µM [9]: 0.338

Structure (SMILES): CC1(C)CCn2c(=O)c(OC[C@H](O)[C@H](O)[C@H](O)CO)nc3cccc1c32
- MIC (Salmonella enterica): 16 µg/mL (≈ 43.9 µM)

Structure (SMILES): CO[C@@H]1O[C@H](Cn2c(=O)n3c4c(cccc42)C(C)(C)CC3)[C@H]2OC(=O)O[C@@H]12
- MIC (Salmonella enterica): 32 µg/mL (≈ 85.5 µM)

Structure (SMILES): CC1(C)CCn2c(=O)c(=O)n(CC(O)CO)c3cccc1c32 (configuration not stated)
- MIC (Salmonella enterica): 8 µg/mL (≈ 26.3 µM)

Structure (SMILES): Cc1cc2[nH]c(=O)c(=O)n(C[C@H](O)[C@H](O)[C@H](O)CO)c2cc1C
- MIC (Salmonella enterica): > 32 µg/mL

Structure (SMILES): Cc1cc2c(cc1C)n(C[C@H](O)[C@H](O)[C@H](O)CO)c(=O)c(=O)n2CCC1CCCCC1
- MIC (Salmonella enterica): 8 µg/mL (≈ 18.4 µM)

Structure (SMILES): CC1(C)CCn2c(=O)c(=O)n(CC(=O)O)c3cccc1c32
- MIC (Salmonella enterica): 16 µg/mL (≈ 55.5 µM)

Structure (SMILES): CC1(C)CCn2c(=O)c(=O)n(CC(N)=O)c3cccc1c32
- MIC (Salmonella enterica): 24 µg/mL (≈ 83.5 µM)

Structure (SMILES): Cc1cc2c(cc1C)n(C[C@H](O)[C@H](O)[C@H](O)CO)c(=O)c(=O)n2CC=C1CCCCC1
- MIC (Salmonella enterica): 32 µg/mL (≈ 74 µM)

Structure (SMILES): CC1(C)CCn2c(=O)n(Cc3cn(C[C@H](O)[C@H](O)[C@H](O)CO)nn3)c3cccc1c32
- MIC (Salmonella enterica): 32 µg/mL (≈ 76.7 µM)

Structure (SMILES): CC1(C)CCn2c(=O)c(=O)n(CCCO)c3cccc1c32
- MIC (Salmonella enterica): 1 µg/mL (≈ 3.47 µM)
- solubility at 5 min [1]: 51.2 µM (≈ 14.8 µg/mL)
- solubility at 5 min [2]: 50.8 µM (≈ 14.7 µg/mL)
- solubility at 5 min [3]: 50.1 µM (≈ 14.4 µg/mL)
- solubility at 5 min [4]: 50.1 µM (≈ 14.5 µg/mL)
- solubility at 5 min [5]: 50.2 µM (≈ 14.5 µg/mL)
- remaining at 1 h [6]: 82.4%
- remaining at 0.5 h, 1 µM [7]: 96.1%
- remaining at 0.5 h, 1 µM [8]: 100%
- fraction unbound at 4 h, 150 µM [9]: 0.389
- Activity [10]: Non-Toxic
- LD50 at 336 h [11]: > 2000 mg/kg

Structure (SMILES): CC1(C)CCn2c(=O)c(=O)n(CCO)c3cccc1c32
- MIC (Salmonella enterica): 24 µg/mL (≈ 87.5 µM)

Structure (SMILES): CCn1c(=O)c(=O)n(C[C@H](O)[C@H](O)[C@H](O)CO)c2cc(C)c(C)cc21
- MIC (Salmonella enterica): > 32 µg/mL

Structure (SMILES): CO[C@@H]1O[C@H](Cn2cc(Cn3c(=O)c(=O)n4c5c(cccc53)C(C)(C)CC4)nn2)[C@H]2OC(=O)O[C@@H]12
- MIC (Salmonella enterica): 32 µg/mL (≈ 66.2 µM)

Structure (SMILES): CO[C@@H]1O[C@H](Cn2cc(Cn3c(=O)c4cccc5c4n(c3=O)CCC5(C)C)nn2)[C@@H](O)[C@H]1O (single isomer, unassigned)
- MIC (Salmonella enterica): > 32 µg/mL

Structure (SMILES): CC1(C)CCn2c(=O)n(CC(O)CO)c3cccc1c32 (configuration not stated)
- MIC (Salmonella enterica): 16 µg/mL (≈ 57.9 µM)

Structure (SMILES): CC1(C)CCn2c(=O)c(=O)n(Cc3nn[nH]n3)c3cccc1c32
- MIC (Salmonella enterica): 4 µg/mL (≈ 12.8 µM)
- solubility at 5 min [1]: 51.8 µM (≈ 16.2 µg/mL)
- solubility at 5 min [2]: 51.2 µM (≈ 16 µg/mL)
- solubility at 5 min [3]: 50.5 µM (≈ 15.8 µg/mL)
- solubility at 5 min [4]: 51.8 µM (≈ 16.2 µg/mL)
- solubility at 5 min [5]: 51.8 µM (≈ 16.2 µg/mL)
- remaining at 1 h [6]: 99.9%
- remaining at 0.5 h, 1 µM [7]: 96.1%
- remaining at 0.5 h, 1 µM [8]: 98.9%
- fraction unbound at 4 h, 150 µM [9]: 0.0205

Structure (SMILES): Cc1cc2nc(OC[C@H](O)[C@H](O)[C@H](O)CO)c(=O)n3c2c(c1C)C(C)(C)CC3
- MIC (Salmonella enterica): 8 µg/mL (≈ 20.4 µM)

Structure (SMILES): CCOC(=O)Cn1c(=O)c(=O)n(C[C@H](O)[C@H](O)[C@H](O)CO)c2cc(C)c(C)cc21
- MIC (Salmonella enterica): 16 µg/mL (≈ 39 µM)

Structure (SMILES): CCOC(=O)Cn1c(=O)c(=O)n2c3c(cccc31)C(C)(C)CC2
- MIC (Salmonella enterica): 8 µg/mL (≈ 25.3 µM)

Structure (SMILES): CC1(C)CCn2c(=O)n(Cc3cn([C@@H]4O[C@H](CO)[C@@H](O)[C@H]4O)nn3)c3cccc1c32
- MIC (Salmonella enterica): 32 µg/mL (≈ 77 µM)

Structure (SMILES): CC1(C)CCn2c(=O)c(=O)[nH]c3cccc1c32
- MIC (Salmonella enterica): 16 µg/mL (≈ 69.5 µM)

Structure (SMILES): CCOC(=O)Cn1cc(Cn2c(=O)c(=O)n3c4c(cccc42)C(C)(C)CC3)nn1
- MIC (Salmonella enterica): 16 µg/mL (≈ 40.3 µM)

Structure (SMILES): CC1(C)CCn2c(=O)n(C[C@H](O)[C@@H](O)CO)c3cccc1c32
- MIC (Salmonella enterica): 16 µg/mL (≈ 52.2 µM)

Structure (SMILES): CC(C)=CCn1c(=O)c(=O)n(C[C@H](O)[C@H](O)[C@H](O)CO)c2cc(C)c(C)cc21
- MIC (Salmonella enterica): 16 µg/mL (≈ 40.8 µM)

Structure (SMILES): CC1(C)CCn2c(=O)c(=O)n(C[C@H](O)[C@H](O)[C@H](O)CO)c3cccc1c32
- MIC (Salmonella enterica): 16 µg/mL (≈ 43.9 µM)

Structure (SMILES): CC1(C)CCn2c(=O)c(=O)n(Cc3ccccn3)c3cccc1c32
- MIC (Salmonella enterica): 24 µg/mL (≈ 74.7 µM)

Structure (SMILES): CCOC(=O)Cn1cc(Cn2c(=O)c3cccc4c3n(c2=O)CCC4(C)C)nn1
- MIC (Salmonella enterica): > 32 µg/mL

Structure (SMILES): CC1(C)CCn2c(=O)n(Cc3cn([C@@H]4OC(CO)C(O)C4O)nn3)c(=O)c3cccc1c32 (single isomer, unassigned)
- MIC (Salmonella enterica): > 32 µg/mL

Structure (SMILES): CC1(C)CCn2c(=O)[nH]c(=O)c3cccc1c32
- MIC (Salmonella enterica): 16 µg/mL (≈ 69.5 µM)

Structure (SMILES): CC1(C)CCn2c(=O)c(=O)n(CCCCO)c3cccc1c32
- MIC (Salmonella enterica): 32 µg/mL (≈ 106 µM)

Structure (SMILES): CO[C@@H]1O[C@H](Cn2c(=O)n3c4c(cccc42)C(C)(C)CC3)[C@@H](OC)[C@H]1OC
- MIC (Salmonella enterica): > 32 µg/mL

Structure (SMILES): CC1(C)CCn2c(=O)n(CCCO)c3cccc1c32
- MIC (Salmonella enterica): > 32 µg/mL

Structure (SMILES): C=CCn1c(=O)c(=O)n(C[C@H](O)[C@H](O)[C@H](O)CO)c2cc(C)c(C)cc21
- MIC (Salmonella enterica): 16 µg/mL (≈ 43.9 µM)

Structure (SMILES): CO[C@@H]1O[C@H](Cn2c(=O)c(=O)n3c4c(cccc42)C(C)(C)CC3)[C@@H](O)[C@H]1O
- MIC (Salmonella enterica): 16 µg/mL (≈ 42.5 µM)

Structure (SMILES): Cn1nnc(Cn2c(=O)c(=O)n3c4c(cccc42)C(C)(C)CC3)n1
- MIC (Salmonella enterica): 16 µg/mL (≈ 49 µM)

Structure (SMILES): CC1(C)CCn2c(=O)n(C[C@H](O)[C@H](O)[C@H](O)CO)c3cccc1c32
- MIC (Salmonella enterica): 4 µg/mL (≈ 11.9 µM)
- solubility at 5 min [1]: 48.2 µM (≈ 16.2 µg/mL)
- solubility at 5 min [2]: 48 µM (≈ 16.1 µg/mL)
- solubility at 5 min [3]: 47.8 µM (≈ 16.1 µg/mL)
- solubility at 5 min [4]: 47.4 µM (≈ 15.9 µg/mL)
- solubility at 5 min [5]: 47.6 µM (≈ 16 µg/mL)
- remaining at 1 h [6]: 99.9%
- remaining at 0.5 h, 1 µM [7]: 96.4%
- remaining at 0.5 h, 1 µM [8]: 100%
- fraction unbound at 4 h, 150 µM [9]: 0.578

Structure (SMILES): Cc1cc2c3c(c1C)C(C)(C)CCn3c(=O)c(=O)n2CC(O)CO (configuration not stated)
- MIC (Salmonella enterica): 16 µg/mL (≈ 48.1 µM)

Structure (SMILES): CCCCCn1c(=O)c(=O)n2c3c(cccc31)C(C)(C)CC2
- MIC (Salmonella enterica): 32 µg/mL (≈ 107 µM)

Structure (SMILES): CC1(C)CCn2c(=O)c(=O)n(Cc3ccccc3)c3cccc1c32
- MIC (Salmonella enterica): 32 µg/mL (≈ 99.9 µM)

Structure (SMILES): CC1(C)CCn2c(=O)c(OCC(O)CO)nc3cccc1c32 (single isomer, unassigned)
- MIC (Salmonella enterica): 16 µg/mL (≈ 52.6 µM)

Structure (SMILES): C#CCn1c(=O)c2cccc3c2n(c1=O)CCC3(C)C
- MIC (Salmonella enterica): 24 µg/mL (≈ 89.4 µM)
